Laboratory results from patent publication US11472807B2, “Purine derivatives for use as medicament and for use in treating neurodegenerative or neuro-inflammatory disorders” (COMMISSARIAT À L'ENERGIE ATOMIQUE ET AUX ENERGIES …, priority 2017, dated 2022).

Legend:
[1] = Brain and plasma exposure after chronic subcutaneous administration (Alzet osmotic pump); type: in vivo, C57Bl/6J mice; conditions: C57Bl/6J, mouse, sc, 30 mg/kg, 28 days, mice, read-out: brain/plasma partition coefficient (Kpbrain/plasma)
Protocol: FIG. 5. Plots illustrating the effect of brain and plasma exposure after chronic subcutaneous administration of Aftin-5 to C57B16J mice. Due to short Aftin-5 elimination half-time, C57B1/6J mice were exposed subcutaneously to Aftin-5 (30 mg/kg) or vehicle (DMSO/PEG) during 28 days through an Alzet osmotic pump (pump 1004, Q=0.14 μL/hrs). Plasma was collected at different time points and 28 days after, both brain tissue and plasma were collected. Aftin-5 were extracted and quantified by LC-MS/MS (Quattro Premier). Aftin-5 concentrations in plasma (A) and brain (B) were expressed in nM. Data expressed as means+/−SEM from one experiment with n=4-5 mice/condition.
C57B1 were exposed subcutaneously to Aftin-5 using osmotic minipumps ([…]; Saint-Germain-Nuelles, France). Aftin-5 was dissolved in DMSO:propylene glycol:ethanol (45:45:10). Mice were treated with 1, 3 or 30 mg/Kg for 28 days. Filled pumps were left in saline overnight at 37° C. for priming. Mice were anesthetized with isoflurane (3-4% v/v, 1.5 mL/min) in an induction chamber and maintained under anesthesia through a mask. Mice were shaved on their back, disinfected and an incision made between the scapulae for pump implantation and finally closed with clips. 1% lidocaine gel was applied over the incision for local analgesia. Animals recovered from anesthesia in heated pads and immediately returned to the cages.

in vitro = conditions: rat
Protocol: A 20% BSA gradient was used for isolation of capillaries. After a second enzymatic digestion, cells were plated in 75 cm^2 coated culture flasks in EBM medium completed by the EGM-2 MV Single Quots kit (Lonza, Basel, Switzerland). Cultures were maintained at 37° C. in a humidified 5% CO2 atmosphere for 5-6 days before being trypsinized and frozen.
The chambers containing human glial cells and brain endothelial cells were considered as the basolateral and apical compartment, respectively. The microplates were then incubated at 37° C. in a 5% CO2 atmosphere. Under these experimental conditions, brain endothelial cells formed a confluent monolayer within 15 days.
After checking BBB integrity, Transwells® with BEC monolayers were transferred to new plates. T buffer (150 mM NaCl, 5.2 mM KCl, 2.2 mM CaCl2, 0.2 mM MgCl2, 6 mM NaHCO3, 2.8 mM glucose and 5 mM Hepes) was added 1.5 mL to the basal chamber (B) and 0.5 ml to the apical chamber (A). […] The Papp value was calculated as followed: Papp=dQ/dT×A×C0 (1) where dQ/dT: amount of drug transported per time-point; A: membrane surface area; Co: donor concentration at time-point 0. […] The mass balance was calculated as follows: R (%)=([(Ap+Bs)/A0]×100 (2) where Ap and Bs are the amount of tested compounds in the apical and basal compartments, respectively. A0 is the initial amount in the donor compartment.

[2] = system: Thr231 phosphorylated Tau; assay: Tau phosphorylation (Thr231) in neuronal primary cultures (MSD); type: cell-based, mice; conditions: neurons, 50 μM, 100 μM and 150 μM for 18 h
Protocol: FIG. 7. Plots illustrating the effect of Aftin-5 mediated attenuation of Tau phosphorylation in neuronal primary cultures. Culture media of cortical neurons were replaced by incubation medium containing Aftin-5 at 100 μM (A100) or 150 μM (A150) or vehicle (0.1% DMSO; Control). After 18 h incubation pTau (Thr231) and total Tau were quantified by sandwich immunoassay using the Meso Scale Discovery technology. Different Tau concentrations were expressed versus total proteins concentration. Kruskal-Wallis test and Dunn's Multiple Comparison post-hoc tests were performed and ***p<0.001 indicates significant differences between Aftin-5 and control conditions. Data expressed as means+/−SEM (n=6 wells/condition).
Hippocampi and cortex were dissected in HBSS containing 5 mM glucose (dissection medium). […] Cells were counted and seeded at a density of 22,000 per cm^2 for hippocampal neurons and 10^5 per cm^2 for cortical neurons into 24 wells culture plates (Costar) in plating medium (DMEM medium containing 10% heat-inactivated horse serum (Life Technologies)). […]
Tau and P-Tau in primary rat neurons, organotypic hippocampal slice cultures from wild type (WT) and transgenic Tau mice (3 Tg) after by Aftin-5. Tau was quantified by sandwich immunoassay using the Meso Scale Discovery technologies. […] After a short incubation (5 min) at room temperature, the plate is read on the SECTOR Imager 2400. […]

With `CC[C@H](CO)Nc1nc(N(C)c2ccccc2)c2ncn(C(C)C)c2n1` [Aftin-5] the Kp at 672 h [1] was about 0.44, the Papp at 60 min, 10 μM (in vitro) was about 35 ×10⁻⁶ cm/s and the “Thr231 phosphorylated Tau protein” value [2] was “significant dose dependent decrease”.
